Where two headings read alike, the source gives them in different places.
Columns and labels:
rat MCH1 receptor [1] = biological target: T1, rat MCH1 receptor (Rattus norvegicus, UniProt P97639); test: HT-PS100 calcium mobilization functional assay; assay type: cell-based; parameters: expressed in transfected cells
[2] = biological target: T2, human MCH 1 receptor (hMCH1R) (Homo sapiens, UniProt Q99705); test: 125I-MCH ligand binding assay, hMCH; details: HEK 293 membranes, 0.2 nM 125I native-MCH
T2 construct: expressed in transfected cells; host or cells: HEK 293 (membranes)
T2 sequence (Q99705 whole entry): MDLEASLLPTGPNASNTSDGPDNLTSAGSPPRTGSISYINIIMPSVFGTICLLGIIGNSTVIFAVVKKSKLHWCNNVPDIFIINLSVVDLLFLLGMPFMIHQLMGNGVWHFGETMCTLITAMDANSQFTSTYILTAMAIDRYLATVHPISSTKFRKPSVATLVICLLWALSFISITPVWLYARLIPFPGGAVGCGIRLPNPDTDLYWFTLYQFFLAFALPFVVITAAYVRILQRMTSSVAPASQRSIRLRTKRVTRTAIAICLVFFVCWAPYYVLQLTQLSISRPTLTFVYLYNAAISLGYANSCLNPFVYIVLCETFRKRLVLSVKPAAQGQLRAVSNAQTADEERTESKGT
In short: (§1)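 HEK293 membranes expressing rat or human MCH1R (100 µg tissue) were incubated for 90 min at 30 °C with 0.2 nM 125I-native-MCH and test compound in HEPES/MgCl2/BSA buffer with protease inhibitors, pH 7.4. Non-specific binding used 1 µM cold MCH. Filter-bound radioactivity gave IC50 by nonlinear regression.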

[3] = biological target: T3, rat MCH 1 receptor (rMCH1R) (Rattus norvegicus, UniProt P97639); test: 125I-MCH ligand binding assay, rMCH; details: HEK 293 membranes, 0.2 nM 125I native-MCH
T3 construct: expressed in transfected cells; host or cells: HEK 293 (membranes)
T3 sequence (P97639 whole entry): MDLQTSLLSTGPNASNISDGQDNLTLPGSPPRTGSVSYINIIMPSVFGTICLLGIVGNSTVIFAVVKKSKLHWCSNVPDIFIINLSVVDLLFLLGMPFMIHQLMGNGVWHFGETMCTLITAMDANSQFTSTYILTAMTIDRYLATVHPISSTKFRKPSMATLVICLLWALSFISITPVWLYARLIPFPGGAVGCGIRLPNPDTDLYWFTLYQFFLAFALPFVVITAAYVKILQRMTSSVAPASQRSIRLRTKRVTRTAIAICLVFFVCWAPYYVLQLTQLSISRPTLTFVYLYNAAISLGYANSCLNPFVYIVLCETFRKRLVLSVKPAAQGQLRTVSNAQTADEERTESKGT
In short: as §1

rat MCH1 receptor [4] = biological target: T1, rat MCH1 receptor; test: rMCH FLIPR calcium mobilization assay (CHOK1-Gqi cells); assay type: cell-based; parameters: expressed in transfected cells; host or cells: CHOK1-Gqi; details: CHOK1-Gqi cells, rat MCH1 receptor
Procedure: Pharmacological analyses were conducted using either a HT-PS100 device (Axiom Biotechnologies, San Diego, Calif.), which provides high-resolution dose-response fluorometric measurements of [Ca^++]i mobilization, or using a FLIPR® device (Molecular Devices, Sunnyvale, Calif.).
Materials: Pharmacological analysis was conducted using a FLIPR® device (Molecular Devices, Sunnyvale, Calif.). CHOK1-Gqi cells were stably transfected with the rat MCH1 receptor and maintained under G418 antibiotic pressure. FLIPR® assay buffer consisted of phenol red-free DMEM+2.5 mM probenecid. […]. Test compounds were prepared as 10 mM stocks in 100% DMSO and diluted to a top end working concentration of 10 μM in 96 well black, flat bottom, collagen-I coated plates (Becton Dickinson, Bedford, Mass.).
Methods: CHOK1-Gqi cells stably expressing MCH1R were maintained in Dulbeco's modified Eagle's medium (GIBCO/Life Technologies, Rockville, Md.) supplemented with 2 mM glutamine and 10% dialyzed fetal bovine serum (HyCLone, Logan, Utah) at 37° C., 5% CO2. Cells were harvested by 10′ treatment with Versene (GIBCO/Life Technologies) followed by trituration, washing twice with cold (4° C.) hybridoma medium (Serum/Protein free, with L-glutamine, sodium bicarbonate, MOPS buffer) (Sigma-Aldrich Corp, St. Louis, Mo.) and replated onto 96 well black, flat bottom, collagen-I coated plates to a density of 10,000 cells/well. The cells were then loaded with the fluorescent calcium indicator Fura-2 (Molecular Probes, Eugene, Oreg.) at 1.6 μM for 60′ at room temperature. The loaded cells were then washed twice with 90 μl/well of wash buffer (1×HBSS, 20 mM HEPES, 2.5 mM probenecid).
Receptor-stimulated intracellular calcium responses were detected using FLIPR® by monitoring increases in the Fura-2 fluorescence response.
Test compounds were screened for MCH1R activity in the FLIPR® for both agonist and antagonist action. Agonist mode challenges were conducted at a maximum gradient concentration of 1 μM. Antagonist activity was tested by 10 min pre-incubation of cells at a compound concentration of defined to be 300× the EC50 of MCH (typically 1 μM), with subsequent introduction of MCH at a concentration 5-fold of EC50 as determined in preliminary experiments. […].
Several fixed concentrations of antagonist compounds were prepared in 10-fold increments, and presented to the cells in a gradient of increasing MCH concentration. Values for compound pA2 were calculated by linear regression of MCH EC50s as a function of antagonist concentration.

human MCH receptor = biological target: T4, human MCH receptor (Homo sapiens, UniProt Q99705); test: hMCH FLIPR calcium mobilization assay; assay type: cell-based
T4 construct: expressed in transfected cells
T4 sequence (Q99705 whole entry): as the sequence (Q99705 whole entry) above

[5] = HEK 293 cells stably transfected with rat MCH1 receptor, 100 nM or less list, read-out: Ki in the HT-PS100 assay
[6] = 100 μM or less list, read-out: IC50 in the hMCH binding assay
[7] = 100 μM or less list, read-out: IC50 in the rMCH binding assay
[8] = 100 μM or less list, read-out: Ki in the rMCH FLIPR assay
[9] = 100 nM or less list, read-out: Ki in the hMCH FLIPR assay
[10] = 100 μM or less list, read-out: Ki in the hMCH FLIPR assay
[11] = 100 nM or less list, read-out: IC50 in the hMCH binding assay

T1 sequence (P97639 whole entry): as the sequence (P97639 whole entry) above

SMILES	Ki (rat MCH1 receptor [1]; [5])	IC50 [2, 6]	IC50 [3, 7]	Ki (rat MCH1 receptor [4]; [8])	Ki (human MCH receptor; [10])	also measured
Cc1cccc(C)c1-n1nnnc1[C@H](c1cccc(F)c1)N1CCN(C/C=C/c2ccccc2)CC1 (racemic) [Compound 48, 1-[[1-(2,6-dimethyiphenyl)-1H-tetrazol-5-yl]-(3-fluorophenyl)methyl]-4-(3-phenylallyl)piperazine]	≤ 0.1 µM	≤ 100 µM	≤ 100 µM	≤ 100 µM	≤ 100 µM	Ki (human MCH receptor; [9]): ≤ 0.1 µM
Cc1cccc(C)c1-n1nnnc1[C@H](c1ccc2c(c1)OCO2)N1CCN(C/C=C/c2ccccc2)CC1 (racemic) [Compound 83, 1-{benzo[1,3]dioxol-5-yl-[1-(2,6-dimethylphenyl)-1H-tetrazol-5-yl]methyl}-4-(3-phenylallyl)piperazine]	≤ 0.1 µM	≤ 100 µM	≤ 100 µM	≤ 100 µM	≤ 100 µM	–
Cc1cccc(C)c1-n1nnnc1[C@H](c1ccc(Cl)cc1)N1CCN(C/C=C/c2ccccc2)CC1 (racemic) [Compound 57, 1-{(4-chlorophenyl)-[1-(2,6-dimethyiphenyl)-1H-tetrazol-5-yl]methyl}-4-(3-phenylallyl)piperazine]	≤ 0.1 µM	≤ 100 µM	≤ 100 µM	≤ 100 µM	≤ 100 µM	–
Cc1cccc(C)c1-n1nnnc1[C@H](c1ccc(Cl)c(Cl)c1)N1CCN(C/C=C/c2ccccc2)CC1 (racemic) [Compound 60, 1-{(3,4-dichlorophenyl)-[1-(2,6-dimethylphenyl)-1H-tetrazol-5-yl]methyl}-4-(3-phenylallyl)piperazine]	≤ 0.1 µM	≤ 100 µM	≤ 100 µM	≤ 100 µM	≤ 100 µM	–
Cc1cccc(C)c1-n1nnnc1[C@H](c1cccc(O)c1)N1CCN(C/C=C/c2ccccc2)CC1 (racemic) [Compound 82, 3-{[1-(2,6-dimethylphenyl)-1H-tetrazol-5-yl]-[4-(3-phenylallyl)piperazin-1-yl]methyl}phenol]	–	–	–	–	–	Ki (rat MCH1 receptor [1]): ≤ 0.1 µM; IC50 ([2]; IC50 in the hMCH binding assay, 100 μM or less list): ≤ 100 µM; IC50 ([3]; IC50 in the rMCH binding assay, 100 μM or less list): ≤ 100 µM; Ki (rat MCH1 receptor [4]; Ki in the rMCH FLIPR assay, 100 μM or less list): ≤ 100 µM; Ki (human MCH receptor; Ki in the hMCH FLIPR assay, 100 nM or less list): ≤ 0.1 µM; Ki (human MCH receptor; Ki in the hMCH FLIPR assay, 100 μM or less list): ≤ 100 µM
Cc1cccc(C)c1-n1nnnc1[C@H](c1cccc(C(F)(F)F)c1)N1CCN(C/C=C/c2ccccc2)CC1 (racemic) [Compound 56, 1-[[1-(2,6-dimethyiphenyl)-1H-tetrazol-5-yl]-(3-trifluoromethyiphenyl)methyl]-4-(3-phenylallyl)piperazine]	≤ 0.1 µM	≤ 100 µM	≤ 100 µM	≤ 100 µM	≤ 100 µM	IC50 [2, 11]: ≤ 0.1 µM; IC50 ([3]; 100 nM or less list, read-out: IC50 in the rMCH binding assay): ≤ 0.1 µM; Ki (rat MCH1 receptor [4]; 100 nM or less list, read-out: Ki in the rMCH FLIPR assay): ≤ 0.1 µM; Ki (human MCH receptor; [9]): ≤ 0.1 µM
Cc1cccc(C)c1-n1nnnc1[C@H](c1ccc(Oc2ccccc2)cc1)N1CCN(C/C=C/c2ccccc2)CC1 (racemic) [Compound 76, 1-[[1-(2,6-dimethylphenyl)-1H-tetrazol-5-yl]-(4-phenoxyphenyl)methyl]-4-(3-phenylallyl)piperazine]	≤ 0.1 µM	≤ 100 µM	≤ 100 µM	≤ 100 µM	–	IC50 [2, 11]: ≤ 0.1 µM
Cc1cccc(C)c1-n1nnnc1[C@H](c1cccs1)N1CCN(C/C=C/c2ccccc2)CC1 (racemic) [Compound 53, 1-{[1-(2,6-dimethyiphenyl)-1H-tetrazol-5-yl]thiophen-2-ylmethyl}-4-(3-phenylallyl)piperazine]	≤ 0.1 µM	≤ 100 µM	≤ 100 µM	≤ 100 µM	≤ 100 µM	Ki (human MCH receptor; [9]): ≤ 0.1 µM
Cc1cccc(C)c1-n1nnnc1[C@H](c1ccc(-n2ccnc2)cc1)N1CCN(C/C=C/c2ccccc2)CC1 (stereo in doubt) [Compound 135, 1-[[1-(2,6-dimethylphenyl)-1H-tetrazol-5-yl]-(4-imidazol-1-ylphenyl)methyl]-4-(3-phenylallyl)piperazine]	–	≤ 100 µM	≤ 100 µM	≤ 100 µM	≤ 100 µM	–
C(=C\c1ccccc1)/CN1CCN([C@@H](c2ccccc2)c2nnnn2-c2ccc3[nH]ccc3c2)CC1 (racemic) [Compound 20]	–	≤ 100 µM	≤ 100 µM	≤ 100 µM	≤ 100 µM	IC50 [2, 11]: ≤ 0.1 µM
COc1ccc(/C=C/CN2CCN([C@@H](c3cccc(C(F)(F)F)c3)c3nnnn3-c3c(C)cccc3C)CC2)cc1 (racemic) [Compound 147, 1-[[1-(2,6-dimethylphenyl)-1H-tetrazol-5-yl]-(3-trifluoromethylphenyl)methyl]-4-[3-(4-methoxyphenyl)allyl]piperazine]	–	≤ 100 µM	≤ 100 µM	≤ 100 µM	≤ 100 µM	–
Cc1cccc(C)c1-n1nnnc1[C@H](c1cccc(C(F)(F)F)c1)N1CCN(Cc2cc3ccccc3n2C)CC1 (racemic) [Compound 148, 2-{4-[[1-(2,6-dimethylphenyl)-1H-tetrazol-5-yl]-(3-trifluoromethylphenyl)methyl]piperazin-1-ylmethyl}-1-methyl-1H-indole]	–	≤ 100 µM	≤ 100 µM	≤ 100 µM	≤ 100 µM	–
Cc1cccc(C)c1-n1nnnc1[C@H](c1cccc(-c2ccccc2)c1)N1CCN(C/C=C/c2ccccc2)CC1 (racemic) [Compound 143, 1-{biphenyl-3-yl-[1-(2,6-dimethylphenyl)-1H-tetrazol-5-yl]methyl}-4-(3-phenylallyl)piperazine]	–	≤ 100 µM	≤ 100 µM	≤ 100 µM	≤ 100 µM	–
Cc1cccc(C)c1-n1nnnc1[C@H](c1ccc(-c2ccccc2)cc1)N1CCN(C/C=C/c2ccccc2)CC1 (racemic) [Compound 64, 1-{biphenyl-4-yl-[1-(2,6-dimethylphenyl)-1H-tetrazol-5-yl]methyl}-4-(3-phenylallyl)piperazine]	≤ 0.1 µM	≤ 100 µM	≤ 100 µM	≤ 100 µM	–	IC50 [2, 11]: ≤ 0.1 µM
Cc1cccc(C)c1-n1nnnc1[C@H](c1cccc(C#N)c1)N1CCN(C/C=C/c2ccccc2)CC1 (stereo in doubt) [Compound 133, 3-{[1-(2,6-dimethylphenyl)-1H-tetrazol-5-yl]-[4-(3-phenylallyl)piperazin-1-yl]methyl}benzonitrile]	–	≤ 100 µM	≤ 100 µM	≤ 100 µM	≤ 100 µM	–
Cc1cccc(C)c1-n1nnnc1[C@H](c1cccc(C(F)(F)F)c1)N1CCN(C/C=C/c2ccccc2O)CC1 (racemic) [Compound 151, 2-(3-{4-[[1-(2,6-dimethylphenyl)-1H-tetrazol-5-yl]-(3-trifluoromethylphenyl)methyl]piperazin-1-yl}propenyl)phenol]	–	≤ 100 µM	≤ 100 µM	≤ 100 µM	≤ 100 µM	–

From US7514438B2, “Melanin concentrating hormone receptor antagonist” (Amgen, Inc., priority 2003, dated 2009)
